Legend:
[1] = Cytotoxicity against human TZM-bl cells assessed as reduction in cell viability by Cell Titer-Glo assay; assay type: cell-based
[2] = Half life of the compound by HPLC analysis; assay type: physicochemical
[3] = Volume of distribution in rhesus monkey at 18 mg, IM measured upto 48.1 hrs by HPLC analysis; assay type: ADME, Macaca mulatta; conditions: in vivo
[4] = Cmax in rhesus monkey at 33.2 mg, iv measured upto 72 hrs by HPLC analysis; assay type: ADME, organism-based, Macaca mulatta; parameters: route intravenous, dose 33.2 mg, time <=72; conditions: in vivo
[5] = Cmax in rhesus monkey at 36 mg, IM measured upto 48.1 hrs by HPLC analysis; assay type: ADME, Macaca mulatta; parameters: route intramuscular, dose 36 mg, time <=48.1; conditions: in vivo
[6] = Toxicity in rhesus monkey assessed as effect on body motion at 33.2 mg, iv measured within 25 mins; assay type: organism-based, Macaca mulatta; conditions: in vivo
[7] = Cmax in rhesus monkey at 9 mg, IM measured upto 48.1 hrs by HPLC analysis; assay type: ADME, Macaca mulatta; parameters: route intramuscular, dose 9 mg, time <=48.1; conditions: in vivo
[8] = Half life in rhesus monkey at 33.2 mg, iv measured upto 72 hrs by HPLC analysis; assay type: ADME, organism-based, Macaca mulatta; conditions: in vivo
[9] = Cmax in rhesus monkey at 18 mg, IM measured upto 48.1 hrs by HPLC analysis; assay type: ADME, Macaca mulatta; parameters: route intramuscular, dose 18 mg, time <=48.1; conditions: in vivo
[10] = Volume of distribution in rhesus monkey at 9 mg, IM measured upto 48.1 hrs by HPLC analysis; assay type: ADME, Macaca mulatta; conditions: in vivo
[11] = Acute toxicity in iv dosed rhesus monkey assessed as maximum tolerated dose; assay type: organism-based, Macaca mulatta; conditions: in vivo
[12] = Half life in rhesus monkey at 36 mg, IM measured upto 48.1 hrs by HPLC analysis; assay type: ADME, Macaca mulatta; conditions: in vivo
[13] = Volume of distribution in rhesus monkey at 36 mg, IM measured upto 48.1 hrs by HPLC analysis; assay type: ADME, Macaca mulatta; conditions: in vivo
[14] = Half life in rhesus monkey at 9 mg, IM measured upto 48.1 hrs by HPLC analysis; assay type: ADME, Macaca mulatta; conditions: in vivo
[15] = Half life in rhesus monkey at 18 mg, IM measured upto 48.1 hrs by HPLC analysis; assay type: ADME, Macaca mulatta; conditions: in vivo
[16] = Volume of distribution in rhesus monkey at 33.2 mg, IV measured upto 72 hrs by HPLC analysis; assay type: ADME, Macaca mulatta; conditions: in vivo
[17] = Toxicity in rhesus monkey assessed as increase in pulse rate at 33.2 mg, iv measured within 25 mins; assay type: organism-based, Macaca mulatta; conditions: in vivo
[18] = Stability of the compound assessed as drug degradation at 10 umol measured after 5 mins by HPLC analysis; assay type: physicochemical; conditions: at 10 µmol, read-out: Drug degradation
[19] = Stability of the compound assessed as drug degradation at 10 umol measured after 25 mins by HPLC analysis; assay type: physicochemical; conditions: at 10 µmol, read-out: Drug degradation
[20] = Stability of the compound assessed as drug degradation at 10 umol measured after 1 mins by HPLC analysis; assay type: physicochemical; conditions: at 10 µmol, read-out: Drug degradation
[21] = target: Envelope glycoprotein gp160 (Human immunodeficiency virus 1) (UniProt Q6QLK5); test: Inhibition of HIV1 KP-5mvcR gp120 interaction with CD4 in human TZM-bl cells assessed as decrease in viral entry at 0.1 uM by […] assay relative to control; assay type: cell-based
[22] = test system: Simian immunodeficiency virus; test: Potentiation of KD-247-induced viral neutralizing activity against SHIV KS2661 infected in human TZM-bl cells assessed as fold reduction in KD-247 IC50 for viral neutralization at 10 uM measured after 48 hrs by luciferase assay relative to KD-247; assay type: functional
[23] = Acute toxicity in rhesus monkey assessed as effect on pulse rate at 24 mg/kg, iv measured after 24 hrs; assay type: organism-based, Macaca mulatta; conditions: in vivo
[24] = Initial drug concentration in rhesus monkey blood at 24 mg/kg, iv measured upto 6 hrs by HPLC analysis; assay type: ADME, organism-based, Macaca mulatta
[25] = Volume of distribution in rhesus monkey at 24 mg/kg, iv measured upto 6 hrs by HPLC analysis; assay type: ADME, organism-based, Macaca mulatta; conditions: in vivo
[26] = Acute toxicity in rhesus monkey assessed as increase in pulse rate at 24 mg/kg, iv measured within 15 mins; assay type: organism-based, Macaca mulatta; conditions: in vivo, 0.25 h
[27] = Acute toxicity in rhesus monkey assessed as effect on blood oxygen levels at 24 mg/kg, iv measured after 24 hrs; assay type: organism-based, Macaca mulatta; conditions: in vivo
[28] = Acute toxicity in rhesus monkey assessed as animal survival at 24 mg/kg, iv measured after 24 hrs; assay type: organism-based, Macaca mulatta; conditions: in vivo
[29] = Acute toxicity in rhesus monkey assessed as decrease in blood oxygen level at 24 mg/kg, iv measured within 15 mins; assay type: organism-based, Macaca mulatta; conditions: in vivo, 0.25 h
[30] = Half life in rhesus monkey at 24 mg/kg, iv measured upto 6 hrs by HPLC analysis; assay type: ADME, organism-based, Macaca mulatta; conditions: in vivo

Sequence of Envelope glycoprotein gp160 (Human immunodeficiency virus 1) (Q6QLK5 1-814): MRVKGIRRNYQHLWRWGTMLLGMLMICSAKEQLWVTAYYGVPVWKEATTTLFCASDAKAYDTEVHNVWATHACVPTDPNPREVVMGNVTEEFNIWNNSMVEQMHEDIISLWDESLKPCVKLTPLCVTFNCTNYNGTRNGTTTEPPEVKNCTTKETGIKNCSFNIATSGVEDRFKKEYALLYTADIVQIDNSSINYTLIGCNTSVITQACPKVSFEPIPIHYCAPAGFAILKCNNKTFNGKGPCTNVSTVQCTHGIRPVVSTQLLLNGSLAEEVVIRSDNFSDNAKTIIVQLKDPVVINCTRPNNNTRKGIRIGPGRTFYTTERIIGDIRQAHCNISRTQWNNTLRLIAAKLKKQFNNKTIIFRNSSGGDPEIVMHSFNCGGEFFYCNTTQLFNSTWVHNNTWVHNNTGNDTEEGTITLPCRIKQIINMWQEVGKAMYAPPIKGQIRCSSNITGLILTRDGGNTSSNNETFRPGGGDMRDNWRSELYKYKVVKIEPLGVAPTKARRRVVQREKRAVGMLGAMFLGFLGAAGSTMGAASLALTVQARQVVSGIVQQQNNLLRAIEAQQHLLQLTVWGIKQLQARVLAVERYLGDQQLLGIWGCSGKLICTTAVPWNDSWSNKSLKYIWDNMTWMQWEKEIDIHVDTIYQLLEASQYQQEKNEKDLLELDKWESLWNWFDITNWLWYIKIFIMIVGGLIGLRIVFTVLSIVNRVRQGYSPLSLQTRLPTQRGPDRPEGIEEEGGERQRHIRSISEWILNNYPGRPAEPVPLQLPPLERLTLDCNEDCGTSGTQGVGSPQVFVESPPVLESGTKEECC

`N=C(N)NCCCCCCCCCCC(=O)NCCN1CCC(NC(=O)C(=O)Nc2ccc(Cl)cc2)CC12CCCCC2` (centres undefined) gave a CC50 [1] of 1.1 µM.

`COCCOCCOCCOCCOCCNC(=O)CCC(=O)OC(CCCNC(=N)N)C(=O)NCCN1CCC(NC(=O)C(=O)Nc2ccc(Cl)cc2)CC12CCCCC2` (centres undefined) [listing 1 of 2 here] gave a CC50 [1] of 109 µM and a half-life [2] of 126 min.

For `COCCOCCOCCOCCOCCOCCOCCOCCOCCOCCOCCOCCNC(=O)CCC(=O)N[C@@H](CCCNC(=N)N)C(=O)NCCN1CCC(NC(=O)C(=O)Nc2ccc(Cl)cc2)CC12CCCCC2.O=C(O)C(F)(F)F.O=C(O)C(F)(F)F` (some centres undefined), the Vd [3] was 215 mL, the Cmax [4] was 39.5 µM and the Cmax [5] was 128 µM. For the same compound, the Activity [6] was “Toxic”, the Cmax [7] was 56.4 µM and the t1/2 [8] was 107.4 min. The Cmax [9] was 59.4 µM, the Vd [10] was 114 mL and the MTD [11] was 3.78 mg/kg. For the same compound, the half-life [12] was 86.4 min, the Vd [13] was 200 mL and the half-life [14] was 47.6 min. For the same compound, the half-life [15] was 58.9 min, the Vd [16] was 592 mL and the Activity [17] was “Toxic”.

Compound `N=C(N)NCCCCC(=O)NCCCC[C@H](NC(=N)N)C(=O)NCCN1CCC(NC(=O)C(=O)Nc2ccc(Cl)cc2)CC12CCCCC2` (some centres undefined) has a CC50 [1] of 62 µM.

Work on `CCCCCCCCCCCCCCCCNC(=O)CCC(=O)OC(CCCNS(=O)(=O)c1ccc([N+](=O)[O-])cc1)C(=O)NCCN1CCC(NC(=O)C(=O)Nc2ccc(Cl)cc2)CC12CCCCC2` (centres undefined) yielded a CC50 [1] of over 300 µM.

`N=C(N)NCCCCCCCCCCC(=O)NCCCC[C@H](NC(=N)N)C(=O)NCCN1CCC(NC(=O)C(=O)Nc2ccc(Cl)cc2)CC12CCCCC2` (some centres undefined) showed a CC50 [1] of 15 µM.

In the case of `N=C(N)NCCCC[C@H](NC(=N)N)C(=O)NCCN1CCC(NC(=O)C(=O)Nc2ccc(Cl)cc2)CC12CCCCC2` (some centres undefined), the CC50 [1] is reported as 46 µM.

Compound `COCCOCCOCCOCCOCCNC(=O)CCC(=O)OC(CCCNC(=N)N)C(=O)NCCN1CCC(NC(=O)C(=O)Nc2ccc(Cl)cc2)CC12CCCCC2` (centres undefined) [listing 2 of 2 here] has a degraded at 5 min, 10 umol [18] of 0%, a degraded at 25 min, 10 umol [19] of 20% and a degraded at 1 min, 10 umol [20] of 0%.

`N=C(N)NCCCCCCCC(=O)NCCCC[C@H](NC(=N)N)C(=O)NCCN1CCC(NC(=O)C(=O)Nc2ccc(Cl)cc2)CC12CCCCC2` (some centres undefined) showed a CC50 [1] of 44 µM.

For `N=C(N)NCCCCC(=O)NCCN1CCC(NC(=O)C(=O)Nc2ccc(Cl)cc2)CC12CCCCC2` (centres undefined), the CC50 [1] was 65 µM.

`CCCCCCCCCCCCCCCCNC(=O)CCC(=O)OC(CCCN)C(=O)NCCN1CCC(NC(=O)C(=O)Nc2ccc(Cl)cc2)CC12CCCCC2` (centres undefined) gave a CC50 [1] of 5.7 µM.

Compound `COCCOCCOCCOCCOCCOCCOCCOCCOCCOCCOCCOCCNC(=O)CCC(=O)N[C@@H](CCCNC(=N)N)C(=O)NCCN1CCC(NC(=O)C(=O)Nc2ccc(Cl)cc2)CC12CCCCC2` (some centres undefined) [listing 1 of 2 here] has an inhibition [21] of 50%.

Compound `N=C(N)NCC(=O)NCCCC[C@H](NC(=N)N)C(=O)NCCN1CCC(NC(=O)C(=O)Nc2ccc(Cl)cc2)CC12CCCCC2` (some centres undefined) has a CC50 [1] of 42 µM.

In the case of `COCCOCCOCCOCCOCCOCCOCCOCCOCCOCCOCCOCCNC(=O)CCC(=O)N[C@@H](CCCNC(=N)N)C(=O)NCCN1CCC(NC(=O)C(=O)Nc2ccc(Cl)cc2)CC12CCCCC2` (some centres undefined) [listing 2 of 2 here], the CC50 [1] is reported as over 100 µM and the “fold change (FC)” value [22] is reported as 20.

For `COCCOCCOCCOCCOCCNC(=O)CCC(=O)OC(CCCN)C(=O)NCCN1CCC(NC(=O)C(=O)Nc2ccc(Cl)cc2)CC12CCCCC2` (centres undefined), the CC50 [1] was 81 µM.

For `CC1(C)CC(NC(=O)C(=O)Nc2ccc(Cl)cc2)CC(C)(C)N1`, the CC50 [1] was 132 µM.

For `N=C(N)NCCCCC(=O)NCCN1CCC(NC(=O)C(=O)Nc2ccc(Cl)cc2)CC12CCCCC2.O=C(O)C(F)(F)F.O=C(O)C(F)(F)F` (centres undefined), the Activity [23] was “Non-Toxic”, the C0 at 6 h [24] was 23.3 µM and the Vd [25] was 10.8 L. The MTD [11] was 24 mg/kg, the Activity [26] was “Toxic” and the Activity [27] was “Non-Toxic”. The Activity [28] was “Non-Toxic”, the Activity [29] was “Toxic” and the half-life [30] was 31 min.

In the case of `CCCCCCCCCCCCCCCCNC(=O)CCC(=O)OC(CCCNC(=N)N)C(=O)NCCN1CCC(NC(=O)C(=O)Nc2ccc(Cl)cc2)CC12CCCCC2` (centres undefined), the CC50 [1] is reported as 17 µM.

In the case of `COCCOCCOCCOCCOCCNC(=O)CCC(=O)N[C@@H](CCCNC(=N)N)C(=O)NCCN1CCC(NC(=O)C(=O)Nc2ccc(Cl)cc2)CC12CCCCC2` (some centres undefined), the CC50 [1] is reported as over 100 µM.

With `COCCOCCOCCOCCOCCNC(=O)CCC(=O)OC(CCCNS(=O)(=O)c1ccc([N+](=O)[O-])cc1)C(=O)NCCN1CCC(NC(=O)C(=O)Nc2ccc(Cl)cc2)CC12CCCCC2` (centres undefined) the CC50 [1] was 174 µM.

Compound `COCCOCCOCCOCCOCCOCCOCCOCCOCCOCCOCCOCCOCCOCCOCCOCCOCCOCCOCCOCCOCCOCCOCCOCCNC(=O)CCC(=O)N[C@@H](CCCNC(=N)N)C(=O)NCCN1CCC(NC(=O)C(=O)Nc2ccc(Cl)cc2)CC12CCCCC2` (some centres undefined) has a CC50 [1] of 40 µM and an inhibition [21] of 65%.

Work on `N=C(N)NCCCCCCCC(=O)NCCN1CCC(NC(=O)C(=O)Nc2ccc(Cl)cc2)CC12CCCCC2` (centres undefined) yielded a CC50 [1] of over 300 µM.

From ChEMBL document CHEMBL4813943, “Hybrids of Small-Molecule CD4 Mimics with Polyethylene Glycol Units as HIV Entry Inhibitors” (J Med Chem, 2021)
